# Experimental data reported in patent US10174035B2, “6-morpholinyl-2-pyrazolyl-9H-purine derivatives and their use as PI3K inhibitors” (Daiichi Sankyo Company, Limited, priority 2015, dated 2019).
# Biological target: recombinant PI3K δ enzyme (Homo sapiens (Human), UniProt O00329)
# Assay: In vitro enzyme assay (Kinase-Glo luminescent kinase assay), PI3Kδ
# Assay type: biochemical
# Description: The Kinase-Glo luminescent kinase assay kit (from Promega) was used to measure kinase activity. In this assay, amount of ATP remaining in solution following a kinase reaction is measured. The effect of compounds on PI3Kδ inhibition was carried out by adding 2.29 μg/ml of recombinant PI3K δ enzyme (Proteros, Germany) to reaction mixture containing assay buffer (50 mM HEPES, pH 7.4, 50 mM NaCl, 0.05% CHAPS) supplemented with 10 mM MgCl2, 5 mM DTT, 60 μM Phosphatidyl inositol bisphosphate (PIP2) and 10 μM ATP in the absence or presence of different concentrations of the compounds in a final volume of 15 μl/well, in a 384 well plate. The reaction mixture was incubated for 2 hours at room temperature. At the end of incubation period the equal volume of Kinase-Glo plus (Promega, V3772), was added per well and the luminescence was measured after incubating for 10 minutes at room temperature in dark. Results were calculated by measuring the luminescence units of test samples to blanks containing no enzyme.
# The compounds of the present invention were tested for their selectivity for PI3Kδ over PI3Kα, PI3Kβ and PI3Kγ following the above assay using specific recombinant enzymes (Proteros, Germany) for each kinase. Assay condition of kinase assay (PI3Kα, PI3Kβ, PI3Kγ and PI3Kδ) was as follows. Enzyme: 2.29 μg/mL; ATP: 10 μM; PIP2 substrate: 60 μM and Reaction Time: 2 hours.
# recombinant PI3K δ enzyme, sequence (O00329 whole entry, species assumed): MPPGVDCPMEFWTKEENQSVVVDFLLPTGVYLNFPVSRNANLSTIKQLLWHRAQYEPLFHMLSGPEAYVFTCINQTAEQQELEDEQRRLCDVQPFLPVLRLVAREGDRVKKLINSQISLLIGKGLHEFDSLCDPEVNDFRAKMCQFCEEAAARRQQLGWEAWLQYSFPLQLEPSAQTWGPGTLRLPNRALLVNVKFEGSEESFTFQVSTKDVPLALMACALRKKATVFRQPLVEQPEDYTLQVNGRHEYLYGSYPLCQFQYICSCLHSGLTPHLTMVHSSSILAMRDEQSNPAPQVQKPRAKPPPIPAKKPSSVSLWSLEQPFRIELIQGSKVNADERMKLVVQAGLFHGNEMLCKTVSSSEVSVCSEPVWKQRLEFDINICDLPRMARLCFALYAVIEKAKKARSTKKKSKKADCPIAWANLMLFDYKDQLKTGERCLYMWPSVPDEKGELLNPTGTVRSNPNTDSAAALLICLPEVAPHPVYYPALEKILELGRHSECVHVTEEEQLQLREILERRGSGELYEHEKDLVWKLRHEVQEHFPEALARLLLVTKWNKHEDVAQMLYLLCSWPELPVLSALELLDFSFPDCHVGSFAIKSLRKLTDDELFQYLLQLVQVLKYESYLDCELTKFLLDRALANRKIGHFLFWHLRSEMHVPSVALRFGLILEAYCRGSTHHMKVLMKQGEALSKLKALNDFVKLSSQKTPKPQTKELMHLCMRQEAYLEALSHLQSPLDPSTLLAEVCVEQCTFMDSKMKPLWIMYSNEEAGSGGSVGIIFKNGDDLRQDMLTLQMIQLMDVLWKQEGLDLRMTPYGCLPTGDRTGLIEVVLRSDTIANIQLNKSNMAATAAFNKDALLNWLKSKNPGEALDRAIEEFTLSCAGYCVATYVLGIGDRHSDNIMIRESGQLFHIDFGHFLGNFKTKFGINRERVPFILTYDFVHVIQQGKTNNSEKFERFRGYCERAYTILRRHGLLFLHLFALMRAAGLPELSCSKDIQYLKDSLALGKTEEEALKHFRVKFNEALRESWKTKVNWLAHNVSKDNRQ
# recombinant PI3K δ enzyme, sequence (P27986 whole entry partner, species assumed): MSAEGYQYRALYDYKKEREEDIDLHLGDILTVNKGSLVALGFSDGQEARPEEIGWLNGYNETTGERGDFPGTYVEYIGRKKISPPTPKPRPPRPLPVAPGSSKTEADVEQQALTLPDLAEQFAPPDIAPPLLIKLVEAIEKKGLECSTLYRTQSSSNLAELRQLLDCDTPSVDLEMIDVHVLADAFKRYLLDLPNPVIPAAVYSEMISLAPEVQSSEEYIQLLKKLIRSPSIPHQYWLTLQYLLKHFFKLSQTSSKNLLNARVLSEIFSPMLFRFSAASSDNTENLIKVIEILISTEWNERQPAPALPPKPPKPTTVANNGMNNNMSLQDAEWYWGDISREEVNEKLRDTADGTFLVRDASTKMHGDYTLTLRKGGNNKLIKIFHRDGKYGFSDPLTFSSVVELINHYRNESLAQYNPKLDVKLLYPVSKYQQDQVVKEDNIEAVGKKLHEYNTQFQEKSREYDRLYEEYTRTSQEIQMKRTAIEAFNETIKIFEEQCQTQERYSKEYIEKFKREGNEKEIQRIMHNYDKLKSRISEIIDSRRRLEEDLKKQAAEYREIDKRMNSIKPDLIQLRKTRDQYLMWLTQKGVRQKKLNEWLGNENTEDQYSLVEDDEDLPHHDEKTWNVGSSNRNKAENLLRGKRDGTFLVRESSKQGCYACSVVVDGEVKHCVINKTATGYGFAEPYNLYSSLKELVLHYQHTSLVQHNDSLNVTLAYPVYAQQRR
row,IC50 [µM],Structure (SMILES)
1,0.163,"Cn1cc(-c2nc3[nH]c(C(=O)N4CCC(N5CCOCC5)CC4)nc3c(N3CCOCC3)c2Cl)cn1 [compound 92, [6-Chloro-5-(1-methyl-1H-pyrazol-4-yl)-7-(morpholin-4-yl)-3H-imidazo[4,5-b]pyridin-2-yl][4-(morpholin-4-yl)piperidin-1-yl]methanone]"
2,0.061,"CCN(CCCN1CCOCC1)C(=O)c1nc2c(N3CCOCC3)nc(-c3cnn(C)c3)nc2[nH]1 [compound 69, N-ethyl-2-(1-methyl-1H-pyrazol-4-yl)-6-(morpholin-4-yl)-N-[3-(morpholin-4-yl)propyl]-9H-purine-8-carboxamide]"
3,0.052,"CN(C(=O)c1nc2c(N3CCOCC3)cc(-c3cnn(C)c3)nc2[nH]1)C1CCN(C2CCOCC2)CC1 [Compound No. 121, N-Methyl-5-(1-methyl-1H-pyrazol-4-yl)-7-(morpholin-4-yl)-N-[1-(tetrahydro-2H-pyran-4-yl)piperidin-4-yl]-3H-imidazo[4,5-b]pyridine-2-carboxamide]"
4,0.05,"C[C@@H]1CN(C2CCN(C(=O)c3nc4c(N5CCOCC5)cc(-c5cn[nH]c5)nc4[nH]3)CC2)C[C@H](C)O1 [compound 118, {4-[cis-2,6-Dimethylmorpholin-4-yl]piperidin-1-yl}[7-(morpholin-4-yl)-5-(1H-pyrazol-4-yl)-3H-imidazo[4,5-b]pyridin-2-yl]methanone]"
5,0.03,"Cc1nn(C)cc1-c1nc(N2CCOCC2)c2nc(C(=O)NCC3(CO)COC3)[nH]c2n1 [compound 71, 2-(1,3-Dimethyl-1H-pyrazol-4-yl)-N-{[3-(hydroxymethyl)oxetan-3-yl]methyl}-6-(morpholin-4-yl)-9H-purine-8-carboxamide]"
6,0.198,"Cn1cc(-c2nc(N3CCOCC3)c3nc(C(=O)N4CCC(N5CCOCC5)CC4)n(C)c3n2)cn1 [compound 23, [9-Methyl-2-(1-methyl-1H-pyrazol-4-yl)-6-(morpholin-4-yl)-9H-purin-8-yl][4-(morpholin-4-yl)piperidin-1-yl]methanone]"
7,0.062,"Cn1cc(-c2nc(N3CCOCC3)c3nc(C(=O)NC4CCN(Cc5ccccc5)CC4)[nH]c3n2)cn1 [compound 49, N-(1-Benzylpiperidin-4-yl)-2-(1-methyl-1H-pyrazol-4-yl)-6-(morpholin-4-yl)-9H-purine-8-carboxamide]"
8,0.015,"Cn1cc(-c2nc(N3CCOCC3)c3nc(C(=O)NCC4CCCCC4)[nH]c3n2)cn1 [compound 36, N-(Cyclohexylmethyl)-2-(1-methyl-1H-pyrazol-4-yl)-6-(morpholin-4-yl)-9H-purine-8-carboxamide]"
9,0.23,"CC(C)n1cc(-c2nc(N3CCOCC3)c3nc(C(=O)N4CCC(N5CCOCC5)CC4)[nH]c3n2)cn1 [compound 18, [4-(Morpholin-4-yl)piperidin-1-yl]{6-(morpholin-4-yl)-2-[1-(propan-2-yl)-1H-pyrazol-4-yl]-9H-purin-8-yl}methanone]"
10,0.027,"Cn1cc(-c2nc(N3CCOCC3)c3nc(C(=O)N4CC(O)C4)[nH]c3n2)cn1 [compound 4, (3-Hydroxyazetidin-1-yl)[2-(1-methyl-1H-pyrazol-4-yl)-6-(morpholin-4-yl)-9H-purin-8-yl]methanone]"
11,0.061,"Cn1cc(-c2nc(N3CCOCC3)c3nc(C(=O)NCCc4cccnc4)[nH]c3n2)cn1 [compound 1, 2-(1-Methyl-1H-pyrazol-4-yl)-6-(morpholin-4-yl)-N-[2-(pyridin-3-yl)ethyl]-9H-purine-8-carboxamide]"
12,0.123,"Cn1cc(-c2nc(N3CCOCC3)c3nc(C(=O)N4CCS(=O)(=O)CC4)[nH]c3n2)cn1 [compound 15, (1,1-Dioxidothiomorpholin-4-yl)[2-(1-methyl-1H-pyrazol-4-yl)-6-(morpholin-4-yl)-9H-purin-8-yl]methanone]"
13,0.092,"Cc1nn(C)cc1-c1nc2c(nc(C(=O)N3CCC(N4CCOCC4)CC3)n2CC2CC2)c(N2CCOCC2)c1F [compound 83, [3-(Cyclopropylmethyl)-5-(1,3-dimethyl-1H-pyrazol-4-yl)-6-fluoro-7-(morpholin-4-yl)-3H-imidazo[4,5-b]pyridin-2-yl][4-(morpholin-4-yl)piperidin-1-yl]methanone]"
14,0.069,"Cn1cc(-c2nc(N3CCOCC3)c3nc(C(=O)N4CCC(NS(C)(=O)=O)CC4)[nH]c3n2)cn1 [compound 28, N-(1-{[2-(1-methyl-1H-pyrazol-4-yl)-6-(morpholin-4-yl)-9H-purin-8-yl]carbonyl}piperidin-4-yl)methanesulfonamide]"
15,0.012,"Cn1cc(-c2nc(N3CCOCC3)c3nc(C(=O)N4CCC(N5CCOCC5)CC4)[nH]c3n2)c(C(F)(F)F)n1 [compound 17, {2-[1-Methyl-3-(trifluoromethyl)-1H-pyrazol-4-yl]-6-(morpholin-4-yl)-9H-purin-8-yl}[4-(morpholin-4-yl)piperidin-1-yl]methanone]"
16,0.019,"Cn1cc(-c2cc(N3CCOCC3)c3nc(C(=O)N4CCN(C5CCOCC5)CC4)[nH]c3n2)cn1 [compound 135, [5-(1-Methyl-1H-pyrazol-4-yl)-7-(morpholin-4-yl)-3H-imidazo[4,5-b]pyridin-2-yl][4-(tetrahydro-2H-pyran-4-yl)piperazin-1-yl]methanone]"
17,0.043,"O=C(c1nc2c(N3CCOCC3)c(F)c(-c3cn[nH]c3)nc2[nH]1)N1CCC(N2CCOCC2)CC1 [compound 125, [6-Fluoro-7-(morpholin-4-yl)-5-(1H-pyrazol-4-yl)-3H-imidazo[4,5-b]pyridin-2-yl][4-(morpholin-4-yl)piperidin-1-yl]methanone]"
18,0.004,"O=C(c1nc2c(N3CCOCC3)c(F)c(-c3c[nH]nc3C(F)(F)F)nc2[nH]1)N1CCC(N2CCOCC2)CC1 [compound 123, {6-Fluoro-7-(morpholin-4-yl)-5-[3-(trifluoromethyl)-1H-pyrazol-4-yl]-3H-imidazo[4,5-b]pyridin-2-yl}[4-(morpholin-4-yl)piperidin-1-yl]methanone]"
19,0.016,"Cn1cc(-c2cc(N3CCOCC3)c3nc(C(=O)NCCCN4CCOCC4)[nH]c3n2)cn1 [compound 115, 5-(1-Methyl-1H-pyrazol-4-yl)-7-(morpholin-4-yl)-N-[3-(morpholin-4-yl)propyl]-3H-imidazo[4,5-b]pyridine-2-carboxamide]"
20,0.034,"Cc1nn(C)cc1-c1nc(N2CCOCC2)c2nc(C(=O)N3CCC(C(C)(C)O)CC3)[nH]c2n1 [compound 12, [2-(1,3-Dimethyl-1H-pyrazol-4-yl)-6-(morpholin-4-yl)-9H-purin-8-yl][4-(2-hydroxypropan-2-yl)piperidin-1-yl]methanone]"
21,0.01,"CN1CCN(C2CN(C(=O)c3nc4c(N5CCOCC5)nc(-c5cnn(C)c5)nc4[nH]3)C2)CC1=O [Compound No. 130, 1-Methyl-4-(1-{[2-(1-methyl-1H-pyrazol-4-yl)-6-(morpholin-4-yl)-9H-purin-8-yl]carbonyl}azetidin-3-yl)piperazin-2-one]"
22,0.046,"Cc1nn(C)cc1-c1nc2[nH]c(C(=O)N3CCC(N4CCOCC4)CC3)nc2c(N2CCOCC2)c1C [compound 89, [5-(1,3-Dimethyl-1H-pyrazol-4-yl)-6-methyl-7-(morpholin-4-yl)-3H-imidazo[4,5-b]pyridin-2-yl][4-(morpholin-4-yl)piperidin-1-yl]methanone]"
23,0.042,"Cn1cc(-c2nc(N3CCOCC3)c3nc(C(=O)N4CCC(N5CCOCC5=O)CC4)[nH]c3n2)cn1 [compound 7, 4-(1-{[2-(1-Methyl-1H-pyrazol-4-yl)-6-(morpholin-4-yl)-9H-purin-8-yl]carbonyl}piperidin-4-yl)morpholin-3-one]"
24,0.058,"Cc1nn(C)cc1-c1nc2c(nc(C(=O)N3CCC(C(C)(C)O)CC3)n2C)c(N2CCOCC2)c1F [compound 107, [5-(1,3-Dimethyl-1H-pyrazol-4-yl)-6-fluoro-3-methyl-7-(morpholin-4-yl)-3H-imidazo[4,5-b]pyridin-2-yl][4-(2-hydroxypropan-2-yl)piperidin-1-yl]methanone]"
25,0.188,"Cc1c(-c2cnn(C)c2)nc2[nH]c(C(=O)N3CCC(N4CCOCC4)CC3)nc2c1N1CCOCC1 [compound 90, [6-Methyl-5-(1-methyl-1H-pyrazol-4-yl)-7-(morpholin-4-yl)-3H-imidazo[4,5-b]pyridin-2-yl][4-(morpholin-4-yl)piperidin-1-yl]methanone]"
26,0.131,"Cn1cc(-c2nc3c(nc(C(=O)N4CCC5(CC4)COC5)n3C)c(N3CCOCC3)c2F)cn1 [compound 108, [6-Fluoro-3-methyl-5-(1-methyl-1-pyrazol-4-yl)-7-(morpholin-4-yl)-3H-imidazo[4,5-b]pyridin-2-yl](2-oxa-7-azaspiro[3.5]non-7-yl)methanone]"
27,0.099,"Cn1cc(-c2nc(N3CCOCC3)c3nc(C(=O)N4CCN(C(=O)c5ncccn5)CC4)[nH]c3n2)cn1 [compound 25, [2-(1-Methyl-1H-pyrazol-4-yl)-6-(morpholin-4-yl)-9H-purin-8-yl][4-(pyrimidin-2-ylcarbonyl)piperazin-1-yl]methanone]"
28,0.01,"CN1CCN(C2CN(C(=O)c3nc4c(N5CCOCC5)cc(-c5cnn(C)c5)nc4[nH]3)C2)CC1=O [Compound No. 129, 1-Methyl-4-(1-{[5-(1-methyl-1H-pyrazol-4-yl)-7-(morpholin-4-yl)-3H-imidazo[4,5-b]pyridin-2-yl]carbonyl}azetidin-3-yl)piperazin-2-one]"
